Experimental data taken from ChEMBL document CHEMBL1201862, “PubChem BioAssay data set” (2004).
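Exposure lasted 48 hours, with cells grown in 96-well plates and compounds tested at five concentrations. The concentration for 50% growth inhibition is given as GI50.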 Activity calls are given as the source filed them. Rule as the data show it: active = GI50 up to about 1.1 µM and inactive = higher.

Key:
Assay in all cases: DTP human tumour cell line panel, 48 h
A498 = test system: A498
A549 = test system: A549
ACHN = test system: ACHN
CAKI-1 = test system: CAKI-1
CCRF-CEM = test system: CCRF-CEM
COLO 205 = test system: COLO 205
EKVX = test system: EKVX
HCC 2998 = test system: HCC 2998
HCT-116 = test system: HCT-116
HCT-15 = test system: HCT-15
HOP-92 = test system: HOP-92
K562 = test system: K562
Malme-3M = test system: Malme-3M
NCI-H23 = test system: NCI-H23
NCI-H460 = test system: NCI-H460
OVCAR-3 = test system: OVCAR-3
SF-268 = test system: SF-268
SF-539 = test system: SF-539
SK-MEL-5 = test system: SK-MEL-5
TK-10 = test system: TK-10

SMILES | GI50 (A498) | GI50 (A549) | GI50 (ACHN) | GI50 (CAKI-1) | GI50 (CCRF-CEM) | GI50 (COLO 205) | GI50 (EKVX) | GI50 (HCC 2998) | GI50 (HCT-116) | GI50 (HCT-15) | GI50 (HOP-92) | GI50 (K562) | GI50 (Malme-3M) | GI50 (NCI-H23) | GI50 (NCI-H460) | GI50 (OVCAR-3) | GI50 (SF-268) | GI50 (SF-539) | GI50 (SK-MEL-5) | GI50 (TK-10)
Nc1nc(O)c(N)c(NCCOCP(=O)(O)O)n1 | > 100 µM (inactive) | > 100 µM (inactive) | > 100 µM (inactive) | > 100 µM (inactive) | > 100 µM (inactive) | > 100 µM (inactive) | > 100 µM (inactive) | > 100 µM (inactive) | > 100 µM (inactive) | > 100 µM | > 100 µM (inactive) | > 100 µM (inactive) | > 100 µM (inactive) | > 57.8 µM (inactive) | > 100 µM (inactive) | > 100 µM (inactive) | > 100 µM (inactive) | > 100 µM (inactive) | > 100 µM (inactive) | > 100 µM (inactive)
Cc1ccc(NC(=O)CC/C(CC(=O)C(C)(C)C)=N/Nc2nnc(C)n2N)cc1C | > 100 µM (inactive) | > 100 µM (inactive) | > 100 µM (inactive) | > 100 µM (inactive) | 65 µM (inactive) | > 100 µM (inactive) | 30.8 µM (inactive) | > 100 µM (inactive) | > 100 µM (inactive) | > 100 µM | > 100 µM (inactive) | 43 µM (inactive) | > 100 µM (inactive) | > 100 µM (inactive) | > 100 µM (inactive) | > 100 µM (inactive) | > 100 µM (inactive) | > 100 µM (inactive) | > 100 µM (inactive) | > 100 µM (inactive)
CN(C)CCN1N=Nc2cccc3cccc1c23 | > 91.8 µM (inactive) | > 100 µM (inactive) | 61.1 µM (inactive) | 69.7 µM (inactive) | > 47 µM (inactive) | 68.4 µM (inactive) | > 100 µM (inactive) | > 100 µM (inactive) | 57.1 µM (inactive) | > 61.9 µM | > 100 µM (inactive) | > 65.2 µM (inactive) | > 78.3 µM (inactive) | > 100 µM (inactive) | 37.5 µM (inactive) | > 100 µM (inactive) | > 100 µM (inactive) | > 100 µM (inactive) | > 88.7 µM (inactive) | > 100 µM (inactive)
CCOC(=O)c1sc2ncnc(N)c2c1C | 24.4 µM (inactive) | > 100 µM (inactive) | 65.8 µM (inactive) | 35.9 µM (inactive) | 62.1 µM (inactive) | 19.6 µM (inactive) | 25.9 µM (inactive) | 40.1 µM (inactive) | 30.5 µM (inactive) | 73.6 µM | 8.99 µM (inactive) | > 100 µM (inactive) | 82.8 µM (inactive) | 70.3 µM (inactive) | > 100 µM (inactive) | > 100 µM (inactive) | 68.5 µM (inactive) | 75.5 µM (inactive) | 36.8 µM (inactive) | 34 µM (inactive)
O=C(Cn1ccnc1[N+](=O)[O-])NCCO [ETANIDAZOLE] | > 100 µM (inactive) | > 100 µM (inactive) | > 100 µM (inactive) | > 100 µM (inactive) | > 100 µM (inactive) | > 100 µM (inactive) | > 100 µM (inactive) | 41.8 µM (inactive) | > 100 µM (inactive) | > 100 µM | > 100 µM (inactive) | > 100 µM (inactive) | > 100 µM (inactive) | > 100 µM (inactive) | 27.5 µM (inactive) | > 100 µM (inactive) | > 100 µM (inactive) | > 100 µM (inactive) | > 100 µM (inactive) | > 100 µM (inactive)
CNc1ncc(-c2nnnn2-c2ccccc2)c(CN(C)C)n1 | > 100 µM (inactive) | > 100 µM (inactive) | > 100 µM (inactive) | > 100 µM (inactive) | > 100 µM (inactive) | > 100 µM (inactive) | > 100 µM (inactive) | > 100 µM (inactive) | > 100 µM (inactive) | > 100 µM | > 100 µM (inactive) | > 100 µM (inactive) | > 100 µM (inactive) | > 100 µM (inactive) | > 100 µM (inactive) | > 100 µM (inactive) | > 100 µM (inactive) | > 100 µM (inactive) | > 100 µM (inactive) | > 100 µM (inactive)
COC(=O)c1cc(-c2ccc(OC)c(OC)c2)oc1-c1ccc(OC)c(OC)c1 | 18.7 µM (inactive) | 44 µM (inactive) | 35.2 µM (inactive) | 54.7 µM (inactive) | > 100 µM (inactive) | 19.5 µM (inactive) | 52.4 µM (inactive) | 81.8 µM (inactive) | 32.4 µM (inactive) | 47.2 µM | 13.4 µM (inactive) | 80.9 µM (inactive) | 43.7 µM (inactive) | 26.6 µM (inactive) | 48.5 µM (inactive) | 42.5 µM (inactive) | 49.7 µM (inactive) | 21.2 µM (inactive) | > 10 µM (inactive) | 53.8 µM (inactive)
N[C@@H](Cc1ccccc1)C(=O)N1CCC[C@@H]1P(=O)(Oc1ccccc1)Oc1ccccc1 | > 100 µM (inactive) | > 100 µM (inactive) | > 100 µM (inactive) | > 100 µM (inactive) | > 100 µM (inactive) | > 100 µM (inactive) | > 100 µM (inactive) | 39.3 µM (inactive) | > 100 µM (inactive) | > 100 µM | > 100 µM (inactive) | 77.8 µM (inactive) | > 100 µM (inactive) | > 100 µM (inactive) | > 100 µM (inactive) | > 100 µM (inactive) | > 100 µM (inactive) | > 100 µM (inactive) | 78.2 µM (inactive) | > 100 µM (inactive)
CN(Cc1ccccc1)/C(=N\C#N)N(Cc1ccccc1)Cc1ccccc1 | 44.8 µM (inactive) | 31 µM (inactive) | 24.3 µM (inactive) | 20.1 µM (inactive) | 37.2 µM (inactive) | 19 µM (inactive) | 34.6 µM (inactive) | 34.8 µM (inactive) | 18.7 µM (inactive) | 26.6 µM | 16.9 µM (inactive) | 25.2 µM (inactive) | 25.2 µM (inactive) | 21.9 µM (inactive) | 27.6 µM (inactive) | 18 µM (inactive) | 34.4 µM (inactive) | 19.8 µM (inactive) | 18.4 µM (inactive) | 33 µM (inactive)
NC1=NCCC1(c1ccccc1)c1ccccn1 (stereo not given) | > 100 µM (inactive) | > 100 µM (inactive) | > 100 µM (inactive) | > 100 µM (inactive) | > 100 µM (inactive) | > 100 µM (inactive) | > 100 µM (inactive) | > 100 µM (inactive) | > 100 µM (inactive) | > 100 µM | > 100 µM (inactive) | > 100 µM (inactive) | > 100 µM (inactive) | > 100 µM (inactive) | > 100 µM (inactive) | > 100 µM (inactive) | > 100 µM (inactive) | > 100 µM (inactive) | > 100 µM (inactive) | > 100 µM (inactive)
Cc1cc(NS(=O)(=O)c2ccc(NC(=O)c3cccc4c(Nc5ccc(S(=O)(=O)Nc6cc(C)on6)cc5)c5ccc(Cl)cc5nc34)cc2)no1 | 55 µM (inactive) | 61.1 µM (inactive) | 85.7 µM (inactive) | > 100 µM (inactive) | 41.9 µM (inactive) | 56.1 µM (inactive) | > 100 µM (inactive) | 56 µM (inactive) | 23.2 µM (inactive) | 45.9 µM | 24.3 µM (inactive) | 40.8 µM (inactive) | > 100 µM (inactive) | 45.1 µM (inactive) | 65 µM (inactive) | 68.5 µM (inactive) | 34.5 µM (inactive) | 37.7 µM (inactive) | 56.4 µM (inactive) | > 100 µM (inactive)
CCOP(=O)(OCC)C(Nc1ccc(Br)cc1)c1cccc([N+](=O)[O-])c1 (stereo not given) | 13.3 µM (inactive) | 15.8 µM (inactive) | 18.3 µM (inactive) | 22.1 µM (inactive) | 17.8 µM (inactive) | 13.2 µM (inactive) | 2.99 µM (inactive) | 17.5 µM (inactive) | 12.7 µM (inactive) | 14.5 µM | 20.7 µM (inactive) | 12 µM (inactive) | 18.2 µM (inactive) | 20.7 µM (inactive) | 14.1 µM (inactive) | 16.2 µM (inactive) | 17.7 µM (inactive) | 19.6 µM (inactive) | 14.6 µM (inactive) | 30.5 µM (inactive)
COC1C(O)C(O[C@H]2CC[C@@]3(C)C(CC[C@@H]4[C@@H]3CC[C@]3(C)[C@@H](C(C)OC5OC(CO)C(O)C(O)C5O)CC[C@]43O)C2)OC(C)C1OC1OC(CO)C(O)C(O)C1O (stereo not given in full) | > 100 µM (inactive) | > 100 µM (inactive) | > 100 µM (inactive) | > 100 µM (inactive) | > 100 µM (inactive) | > 100 µM (inactive) | > 100 µM (inactive) | > 100 µM (inactive) | > 100 µM (inactive) | > 100 µM | > 100 µM (inactive) | > 100 µM (inactive) | > 100 µM (inactive) | > 100 µM (inactive) | > 100 µM (inactive) | > 100 µM (inactive) | > 100 µM (inactive) | > 100 µM (inactive) | > 100 µM (inactive) | > 100 µM (inactive)
Cc1cc(C)nc(SC(C)C(=O)N/N=C/c2ccc(OCc3ccccc3)cc2)n1 (stereo not given) | 31.8 µM (inactive) | 31.3 µM (inactive) | 25.2 µM (inactive) | 20.5 µM (inactive) | 19.1 µM (inactive) | 20.8 µM (inactive) | 25.2 µM (inactive) | 28.1 µM (inactive) | 23.9 µM (inactive) | 26.4 µM | 28.6 µM (inactive) | 6.11 µM (inactive) | 22.3 µM (inactive) | 18 µM (inactive) | 17.1 µM (inactive) | 19.7 µM (inactive) | 40.6 µM (inactive) | 50.8 µM (inactive) | 7.03 µM (inactive) | 27.2 µM (inactive)
